{"source": "patent US5112739A", "about": "“Enzyme controlled release system” (Polaroid Corporation, priority 1988, dated 1992)", "assay_type_in_all_cases": "biochemical", "key": {"[1]": {"target": "β-galactosidase from e. coli (Escherichia coli, UniProt P00722)", "sequence (P00722 whole entry)": "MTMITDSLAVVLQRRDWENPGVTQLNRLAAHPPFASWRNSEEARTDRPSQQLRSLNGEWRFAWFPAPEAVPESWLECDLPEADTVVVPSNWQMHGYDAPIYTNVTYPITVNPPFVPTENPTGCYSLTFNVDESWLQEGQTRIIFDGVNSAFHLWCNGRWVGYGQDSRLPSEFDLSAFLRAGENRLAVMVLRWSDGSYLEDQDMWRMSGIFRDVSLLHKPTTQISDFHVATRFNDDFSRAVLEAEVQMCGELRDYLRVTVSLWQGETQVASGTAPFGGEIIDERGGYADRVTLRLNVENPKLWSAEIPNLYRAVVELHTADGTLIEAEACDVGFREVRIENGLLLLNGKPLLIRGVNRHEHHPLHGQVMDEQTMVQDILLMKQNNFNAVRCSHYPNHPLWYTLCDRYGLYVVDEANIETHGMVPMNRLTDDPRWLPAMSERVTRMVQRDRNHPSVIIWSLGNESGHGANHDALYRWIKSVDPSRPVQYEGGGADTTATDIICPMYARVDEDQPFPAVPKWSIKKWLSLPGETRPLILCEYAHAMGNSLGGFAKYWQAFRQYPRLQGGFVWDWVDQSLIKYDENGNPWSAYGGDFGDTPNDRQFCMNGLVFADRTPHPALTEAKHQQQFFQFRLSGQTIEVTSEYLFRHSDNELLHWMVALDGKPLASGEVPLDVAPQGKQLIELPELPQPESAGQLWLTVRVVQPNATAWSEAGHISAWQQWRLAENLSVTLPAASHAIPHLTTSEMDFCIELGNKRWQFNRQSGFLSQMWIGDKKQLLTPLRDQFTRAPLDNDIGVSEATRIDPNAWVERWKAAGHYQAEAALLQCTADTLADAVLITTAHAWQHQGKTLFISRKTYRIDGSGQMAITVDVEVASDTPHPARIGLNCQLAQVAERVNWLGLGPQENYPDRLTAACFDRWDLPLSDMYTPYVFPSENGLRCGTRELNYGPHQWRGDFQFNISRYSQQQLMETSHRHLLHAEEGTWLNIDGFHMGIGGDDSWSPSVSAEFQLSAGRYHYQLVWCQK", "test": "relative release rate of the leaving group on cleavage by β-galactosidase, spectrophotometric", "settings": "for APPROXIMATE RELATIVE RATE (release of leaving group, compared with ONPG): 5 × 10^-5 M compound, pH7 tris buffer, 0.01 M NaCl, 0.01 M MgCl2, 25° C., 1.5 IU β-galactosidase, ONPG = 1.0; for release rate, comparison in words: same test as the relative rate table, β-galactosidase from e. coli", "description": "The approximate relative release rates of the leaving groups of compounds according to the invention compared with that of o-nitrophenolgalactoside (ONPG) were measured according to the following procedure: a 5 × 10^-5 M solution of the compound was formed in pH7 tris(hydroxymethyl)aminomethane buffer which was 0.01 M in sodium chloride and 0.01 M in magnesium chloride at 25° C. The solution was placed in a 3 ml cuvette and 1.5 IU of β-galactosidase from e. coli introduced. The reaction mixture was monitored in a spectrophotometer at the appropriate wavelength."}, "[2]": {"test_system": "anti α-TSH-β-galactosidase conjugate", "test": "release of dye from compound B by anti α-TSH-β-galactosidase conjugate, optical density and fluorescence", "settings": "100 μl of 0.3 mmolar mixture, pH 7.0 buffer, + 10 μl conjugate, 15 minutes at 37° C., enzyme 1.3 × 10^-12 molar", "description": "A 0.3 :mmolar mixture of compound B in a pH 7.0 buffer (0.1 molar NaH2 PO 0.15 molar NaCl, 0.1% Zwittergent 3-14) was stirred at room temperature for 30 minutes and then filtered through a 0.22 μ filter element. The concentration of the compound was calculated by diluting the solution (1:10) to provide an optical density of between 0.39 and 0.41 at 470 nm (ε=20,000).\nThe solution (100 μl) was added to a microtiter plate well and the optical density was measured at 570 nm with an EIA Auto Reader, Model EL 310 from Bio Tek Instruments. The fluorescence of the same 100 μl volume of the solution was measured with a Titertek Fluoroska® from Flow Laboratories by exciting at 550 nm and reading at 580 nm.\nTo each of the 100 μl volumes of the solution there were added 10 μl of an anti α-TSH-β-galactosidase conjugate ([…] in β-galactosidase) and the mixtures were incubated for 15 minutes at 37° C. followed by measuring the optical density and fluorescence as described above."}, "[3]": {"test_system": "β-galactosidase (e. coli)", "test": "fluorescence rate of compound B as a function of β-galactosidase concentration (standard curve)", "settings": "45 μl 0.614 mmolar compound + 5 μl enzyme, pH 7.6, ex 550 nm/em 580 nm, 0 and 2 minutes, average of two"}}}
{"smiles": "O=c1ccc2nc3ccc(OCc4ccc(O[C@@H]5O[C@H](CO)[C@H](O)[C@H](O)[C@H]5O)c([N+](=O)[O-])c4)cc3oc-2c1", "note": "[A]", "values": [{"measurement": "APPROXIMATE RELATIVE RATE (release of leaving group, compared with ONPG)", "setting": "[1]", "value": 0.25}, {"measurement": "release rate, comparison in words", "setting": "[1]", "value": "significantly different release rates"}]}
{"smiles": "Cc1cc(=O)c(C(=O)N2CCOCC2)c2oc3c(C(=O)N4CCOCC4)c(OCc4ccc(O[C@@H]5O[C@H](CO)[C@H](O)[C@H](O)[C@H]5O)c([N+](=O)[O-])c4)cc(C)c3nc1-2", "note": "[B]", "values": [{"measurement": "APPROXIMATE RELATIVE RATE (release of leaving group, compared with ONPG)", "setting": "[1]", "value": 0.3}, {"measurement": "change in optical density", "setting": "[2]; 570 nm", "value": 0.0594}, {"measurement": "change in fluorescence", "setting": "[2]; excitation 550 nm, reading 580 nm", "value": 7266, "unit": "mV"}, {"measurement": "change in voltage/minute (fluorescence)", "setting": "[3]; Enzyme Conc. 1 × 10^-11", "value": 2.161, "unit": "V/min"}, {"measurement": "change in voltage/minute (fluorescence)", "setting": "[3]; Enzyme Conc. 1 × 10^-12", "value": 0.247, "unit": "V/min"}, {"measurement": "change in voltage/minute (fluorescence)", "setting": "[3]; Enzyme Conc. 1 × 10^-13", "value": 0.035, "unit": "V/min"}, {"measurement": "change in voltage/minute (fluorescence)", "setting": "[3]; Enzyme Conc. 3 × 10^-12", "value": 0.734, "unit": "V/min"}, {"measurement": "change in voltage/minute (fluorescence)", "setting": "[3]; Enzyme Conc. 3 × 10^-13", "value": 0.078, "unit": "V/min"}]}
{"smiles": "O=c1ccc2nc3ccc(OCc4cc([N+](=O)[O-])ccc4O[C@@H]4O[C@H](CO)[C@H](O)[C@H](O)[C@H]4O)cc3oc-2c1", "note": "[C]", "values": [{"measurement": "APPROXIMATE RELATIVE RATE (release of leaving group, compared with ONPG)", "setting": "[1]", "value": "0.005-0.05"}, {"measurement": "release rate, comparison in words", "setting": "[1]", "value": "significantly different release rates"}]}
{"smiles": "O=C(c1cc(O[C@@H]2O[C@H](CO)[C@H](O)[C@H](O)[C@H]2O)c([N+](=O)[O-])cc1COc1ccc2nc3ccc(=O)cc-3oc2c1)N1CCOCC1", "note": "[D]", "values": [{"measurement": "APPROXIMATE RELATIVE RATE (release of leaving group, compared with ONPG)", "setting": "[1]", "value": 0.02}, {"measurement": "release rate, comparison in words", "setting": "[1]", "value": "much slower release rate"}]}
{"smiles": "O=C(c1cc2ccc(OCc3ccc(O[C@@H]4O[C@H](CO)[C@H](O)[C@H](O)[C@H]4O)c([N+](=O)[O-])c3)cc2oc1=O)N1CCOCC1", "note": "[E]", "values": [{"measurement": "APPROXIMATE RELATIVE RATE (release of leaving group, compared with ONPG)", "setting": "[1]", "value": "0.1-0.5"}]}
{"smiles": "O=[N+]([O-])c1ccccc1O[C@@H]1O[C@H](CO)[C@H](O)[C@H](O)[C@H]1O", "note": "[ONPG, o-nitrophenolgalactoside, reference compound]", "values": [{"measurement": "APPROXIMATE RELATIVE RATE (release of leaving group, compared with ONPG)", "setting": "[1]", "value": 1.0}]}
